Legend:
[1] = test system: Gli1, Ptch1, Bcl2; assay: Hh target expression in lymphoma cells (Western blot, quantitative RT-PCR); assay type: cell-based, mouse
Protocol: Western immunoblot: Whole-cell lysates were sonicated in 2% SDS/50 mM TrisHCl, pH8. Western blot using rabbit or goat polyclonal antibodies for Shh-N, c-Myc, Smo, Gli1 were performed as described. Shh-N, c-Myc and Smo antibodies were obtained from Santa Cruz Biotechnology, Gli1 (ab7523) antibody was obtained from Abcam Inc. (Cambridge, Mass.).
RT-PCR: Total cellular RNA was treated with DNase, reverse transcribed, amplified for 33 cycles at an annealing temperature of 55° C. Primers used were obtained from Integrated DNA Technologies (Coralville, Iowa).
To further substantiate a role for Hh/SMO signalling in Eμ-Myc and CDKN2a^−/− positive lymphoma we determined the expression of Hh pathway members in the lymphoma cells itself. Transcripts of all essential Hh pathway members (Smo, Ptc1, Ptc2, Gli1, and Gli2) were expressed in B-cell lymphomas, plasmoblastomas and plasmacytomas (FIG. 2E). Gli1 and Ptch represent direct target genes of the Hh pathway itself and are regulated at the transcriptional level by Hh signalling. […] Ptch1 transcript levels were decreased 10-fold within 18 h of pathway inhibition (FIG. 2G). Other target genes of the Hh pathway like Hip and Cyclin D1 could also be detected in the majority of lymphoma cells. […] All 3 Gli proteins have evolved specialized functions with distinct temporal and tissue-specific expression patterns. Unlike Gli1, which represents a direct transcriptional Hh-target gene, Gli2 and also Gli3 are considered latent transcriptional regulators activated by Hh signalling through modification of their N-terminal repressor domain.

[2] = test system: lymphoma cells (Ly9)
Protocol: D: injection of 1 Mio luciferased lymphoma cells in C57B16 mice.
Immunohistochemistry: Single colour DAB-immunoperoxidase staining was performed as described. Antibodies were obtained from Santa Cruz Biotechnologies (for Shh antibody, N-19), NeoMarkers (for Ki67 antibody) and Promega (for PARP antibody).
Mouse experiments: Black6 mice between 6 and 8 weeks of age were injected with 1 Mio luciferased lymphoma cells. […] Bioluminescence was measured with injection of […].
We next wished to determine the importance of Hh signalling in established lymphomas.

[3] = 50 mg/kg twice a day for 3 days, vs control group

CC1=C2C[C@H]3[C@@H](CC=C4C[C@@H](O)CC[C@@]43C)[C@@H]2CC[C@]12O[C@@H]1C[C@H](C)CN[C@H]1[C@H]2C [cyclopamine]
Bcl2 in Myc-lymphomas ([1]; after cyclopamine treatment, Western blot): downregulated | decrease of Ptch1 transcript levels ([1]; within 18 h of pathway inhibition, 5 μM): 10 fold | Gli1 protein in lymphoma cells ([1]; within 24 hours, compared to actin control): reduction of detectable Gli1 protein | infiltration of the spleen [2, 3]: markedly decreased | lymphoma mass in lymph nodes and other organs [2, 3]: reduced lymphoma mass | PARP staining of spleen ([2]; after 3 days of treatment): apoptosis induction | histopathology of spleens (H&E) ([2]; after 3 days of treatment): reduction of lymphoma cells in the spleen | Ki67 staining of spleen ([2]; after 3 days of treatment, compared to vehicle group): strong decrease of high proliferative cells | decrease of spleen weight ([2]; three-day treatment, compared to vehicle control group): ~50%

Reference: US20110044991A1, “METHODS AND COMPOSITIONS FOR TREATING LYMPHOMA AND MYELOMA” (IRM LLC, priority 2006, published 2011)
